# pIC50: −log10 of the molar value. Like-named read-outs stand apart in the source and are kept apart here.
# Experiments:
# β-Glucuronidase (GUS) = target: T1, β-Glucuronidase (GUS) (Escherichia coli, UniProt P05804); format: biochemical, E. coli
# T1 construct: purchased Sigma-Aldrich type VII-A (catalogue number not given)
# Protocol: For this, all of these substrates were dissolved separately with sodium phosphate buffer (75 mM, pH 8). […] 20 μL of GUS (final concentration of 1 U/mL) was then added into each well and incubated for 30 min to allow color development. The absorbance at 610, 400, and 380 nm was then measured using a TECAN M1000 plate reader. A digital camera was also used to take a photograph of the plate. […] (0-10 mM), and FeCl3 (2 mM) were entrapped on paper as described previous section (FIG. 13b). The sensor was then immersed into GUS solution (1 U/mL) and removed as soon as the Gus solution has reached the sensing region through FeCl3 zone followed by a certain incubation time (5, 30, and 60 min) at room temperature.
# Experiments were conducted firstly in 96-well plate, in which GUS (final concentration of 1 U/mL) was entrapped in silica gel. […] (4 mM) and oxidizing agents (1 mM each) were then added to each well (designated for the individual oxidizing agent), and incubated for 30 min. The concentration gradient (0-30 mM) of FeCl3 was also observed in 96-well plate. The absorbance at 610 was measured using a TECAN M1000 plate reader for each experiment. A digital camera was also used to take a photograph of the plate. […] (3 mM) were entrapped on paper using biocompatible silica material in order to make the sensor strips, as described in the previous section. The performance of the sensor was then assayed by dipping it into the GUS solution (1 U/mL) to allow the enzyme solution to reach the sensing zone through FeCl3 zone via lateral flow. The color development times tested were 5, 30, and 60 min.
# [1] = target: T2, acetylcholinesterase (AChE) (Electrophorus electricus, UniProt O42275); conditions: read-out: KM, literature value; cited from earlier work
# T2 sequence (O42275 24-633): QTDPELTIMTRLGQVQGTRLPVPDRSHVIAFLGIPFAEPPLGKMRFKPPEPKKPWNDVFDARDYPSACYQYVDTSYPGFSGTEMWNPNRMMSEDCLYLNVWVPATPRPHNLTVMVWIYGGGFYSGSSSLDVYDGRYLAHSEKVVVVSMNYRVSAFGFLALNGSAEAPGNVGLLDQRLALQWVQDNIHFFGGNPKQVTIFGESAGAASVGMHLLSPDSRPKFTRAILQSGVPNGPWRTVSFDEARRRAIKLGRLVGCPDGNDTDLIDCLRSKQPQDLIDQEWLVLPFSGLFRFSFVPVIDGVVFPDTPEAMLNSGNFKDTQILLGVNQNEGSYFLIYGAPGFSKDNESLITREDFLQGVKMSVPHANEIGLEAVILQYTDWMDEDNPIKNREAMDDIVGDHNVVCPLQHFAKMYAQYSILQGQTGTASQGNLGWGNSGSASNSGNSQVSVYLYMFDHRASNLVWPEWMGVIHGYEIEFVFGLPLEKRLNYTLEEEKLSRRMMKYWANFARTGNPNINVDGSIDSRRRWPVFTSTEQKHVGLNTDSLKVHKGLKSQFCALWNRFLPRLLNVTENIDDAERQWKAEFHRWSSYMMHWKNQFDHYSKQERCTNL
# [2] = target: T2, acetylcholinesterase (AChE); test: biochemical; format: biochemical; design: purchased Sigma-Aldrich; conditions: for apparent saturated inhibition concentration / LOD: IPA lateral flow sensor; for detection limit (LOD): S/N=3, IPA lateral flow sensor
# Protocol: 20 μL of IPA (0˜5 mM) was then added into each well and incubated for 5 min to allow color development. The absorbance at 640 nm was then measured using a TECAN plate reader.
# The performance of the sensor under optimized conditions can be assessed in two ways: (1) directly (normal lateral flow-based chromatography) without incubating the contaminated sample, and (2) inverted lateral flow-based chromatography with incubation of the sample. For the latter case, after incubation 5 min at room temperature, the sensor was inverted again and immersed into dH2O for bringing up IPA by lateral flow action into sensing area of the strip above the liquid level.
# The sensor was then inverted again and immersed into dH2O to bring up IPA by lateral flow action into the sensing area of the strip above the liquid level. The color intensity was determined by analyzing a digital image with the ImageJ software as described above.
# [3] = target: T2, acetylcholinesterase (AChE); format: biochemical; design: purchased Sigma-Aldrich
# [4] = target: T2, acetylcholinesterase (AChE); format: biochemical; design: purchased Sigma-Aldrich; conditions: milk and apple juice samples (pH adjusted 7-8)
# [5] = target: T2, acetylcholinesterase (AChE); test: Ellman colorimetric assay on ink jet printed PVAm/silica/AChE+DTNB/silica paper sensor
# Protocol: The performance can be assessed in two ways: a) by direct addition of substrate solution to sensing area, and b) by immersion into the substrate solution. […] However, in the case of direct analyte addition, only small amounts of reagent are needed (5 μL) relative to dipstick sensors (˜2 mL), reducing cost per assay. […] The color intensity of the sensing areas was quantified by obtaining a digital image (Canon A630, 8.0 MegaPixel operated in automatic mode with no flash and with the macroimaging setting on) and using ImageJ™ software to analyze the jpeg images. ImageJ™ software uses a […] color scale and for image processing the images were inverted so that areas that were originally white became black and corresponded to a color intensity of zero and while areas that were originally black became white and corresponded to […]. Based on this scale, increases in the amount of yellow color cause an increase in color intensity of the sensor strips. To account for variations in color intensity owing to differences in environmental illumination, a background subtraction (color intensity of the paper surface closest to the sensing area) was done for each data point.
# The intensity was determined by analyzing a digital image with the ImageJ software as described above.
# [6] = target: T2, acetylcholinesterase (AChE); format: biochemical; design: purchased Sigma-Aldrich; remark: listed apart in the source
# T1 sequence (P05804 whole entry): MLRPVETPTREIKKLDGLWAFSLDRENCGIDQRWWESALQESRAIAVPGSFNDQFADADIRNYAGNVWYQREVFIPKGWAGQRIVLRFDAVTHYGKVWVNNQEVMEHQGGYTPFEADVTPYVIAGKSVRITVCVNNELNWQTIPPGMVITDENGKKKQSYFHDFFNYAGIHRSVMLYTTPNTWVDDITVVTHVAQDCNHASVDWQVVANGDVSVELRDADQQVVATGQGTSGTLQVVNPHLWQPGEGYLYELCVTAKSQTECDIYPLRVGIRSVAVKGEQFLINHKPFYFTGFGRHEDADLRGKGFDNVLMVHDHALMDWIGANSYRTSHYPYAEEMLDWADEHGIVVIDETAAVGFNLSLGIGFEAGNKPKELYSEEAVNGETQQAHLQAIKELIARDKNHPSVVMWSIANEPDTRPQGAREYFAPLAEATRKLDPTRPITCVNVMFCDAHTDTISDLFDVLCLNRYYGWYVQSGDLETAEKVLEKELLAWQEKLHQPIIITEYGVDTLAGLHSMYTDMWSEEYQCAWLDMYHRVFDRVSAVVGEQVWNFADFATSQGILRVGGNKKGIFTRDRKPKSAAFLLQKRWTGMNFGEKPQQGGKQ
compound,measurement,setting,value
"N#CC1=C(C#N)C(=O)C(Cl)=C(Cl)C1=O [DDQ, 2,3-dichloro-5,6-dicyanobenzoquainone]",blue color development with oxidizing agent,β-Glucuronidase (GUS),poorest performance for blue color development
"O.O.O.O.O.O.[Cl-].[Cl-].[Cl-].[Fe+3] [FeCl3, FeCl3. 6H2O]",blue color development with oxidizing agent,β-Glucuronidase (GUS),strongest visual color intensity
"NC1CCCCC1.O=C(O)[C@H]1O[C@@H](Oc2c[nH]c3ccccc23)[C@H](O)[C@@H](O)[C@@H]1O [IBDG, indoxyl-β-D-glucuronide cyclohexylammonium salt]",visual color formation via GUS catalyzed hydrolysis,β-Glucuronidase (GUS),relatively faint color
"CC(=O)Oc1ccc(N=C2C=CC(=O)C=C2)cc1 [IPA, indophenyl acetate]",Km,[1],~700 µM
same,Km,[2],~1500 µM
"O=C(O)[C@H]1O[C@@H](Oc2ccc([N+](=O)[O-])cc2)[C@H](O)[C@@H](O)[C@@H]1O [PNPG, p-nitrophenyl-β-D-glucuronide]",visual color formation via GUS catalyzed hydrolysis,β-Glucuronidase (GUS); in solution for 30 min,relatively faint color
CNC(=O)Oc1cccc2c1OC(C)(C)O2 [bendiocarb],pIC50,[2],7.70
same,apparent saturated inhibition concentration,[2],around 1 μM
same,detection limit (LOD),[2],ca. 10 nM
CNC(=O)Oc1cccc2ccccc12 [carbaryl],pIC50,[2],7.30
same,apparent saturated inhibition concentration,[2],~5 µM
same,detection limit (LOD),[2],~100 nM
OCC(O)CO [glycerol],effect of additive on AChE activity in solution,[3],did not produce a decrease in AChE activity
CCOC(=O)CC(SP(=S)(OC)OC)C(=O)OCC (stereo not shown) [malathion],pIC50,[2],~8.00
same,LOD,[2],ca. 10 μM
CCOP(=O)(OCC)Oc1ccc([N+](=O)[O-])cc1 [paraoxon],detection limit,[4],~10 nm
same,detection limit (LOD),"[5]; S/N=3, Ellman paper sensor",ca. 100 nM
same,inhibition of AChE,[5]; at 100 nM inhibitor,~25%
same,LOD,[2],ca. 10 μM
same,inhibition of AChE,[6]; 1 mM paraoxon sprayed on apple and head lettuce,~50%
same,inhibition of AChE,[6]; 50 mM paraoxon sprayed on apple and head lettuce,almost complete inhibition
Triton X-100,effect of additive on AChE activity in solution,[3],No significant loss of AChE activity
aflatoxin B1 [AfB1],detection limit (LOD),[5],~30 nM
same,inhibition of AChE,[5]; 0.1 µM,~45%
same,pIC50,[5]; read-out: IC50 for inhibition of AChE,~7.00

# From patent publication US9157109B2, “Biosensors utilizing ink jet-printed biomolecule compatible sol gel inks and uses thereof” (McMaster University, priority 2009, dated 2015)
